From article PMC2217384 (The Journal of General Physiology, 2003)

Molecular target: T1, P2X1 receptor (Rattus norvegicus, UniProt P47824)
T1 sequence (P47824 1-399): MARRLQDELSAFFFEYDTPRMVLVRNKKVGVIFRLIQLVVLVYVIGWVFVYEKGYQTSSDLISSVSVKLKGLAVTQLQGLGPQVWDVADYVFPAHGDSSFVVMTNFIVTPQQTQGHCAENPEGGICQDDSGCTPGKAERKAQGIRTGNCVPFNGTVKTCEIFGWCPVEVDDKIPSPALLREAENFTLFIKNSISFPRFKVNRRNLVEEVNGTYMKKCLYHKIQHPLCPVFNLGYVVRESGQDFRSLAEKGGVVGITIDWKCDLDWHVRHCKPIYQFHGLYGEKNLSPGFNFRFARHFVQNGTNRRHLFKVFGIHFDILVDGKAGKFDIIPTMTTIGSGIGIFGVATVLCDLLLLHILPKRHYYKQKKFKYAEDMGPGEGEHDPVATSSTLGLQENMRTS
Test: two-electrode voltage clamp in Xenopus oocytes
Type: cell-based

EC50: 700 ± 60 nM
SMILES: Nc1ncnc2c1ncn2[C@@H]1O[C@H](COP(=O)(O)OP(=O)(O)OP(=O)(O)O)[C@@H](O)[C@H]1O [ATP]
